Test results as given in patent US9012414B2, “Cosmetic composition” (Guerlain, priority 2010, dated 2015).
“Also recorded” adds a separate entry of the source.

Legend:
[1] = Solubility of the isolated vandaterosides; assay type: physicochemical
[2] = system: involucrin; experiment: Involucrin expression in normal human keratinocytes (immunolabeling); assay type: cell-based; settings: NHKs, 12 μg/ml, treatment 5 days
Procedure: (§1) The NHKs are cultured at passage 3 in complete KSFM medium in a T75 flask. At the pre-confluence stage, the NHKs are trypsinized and seeded in a proportion of 20 000 cells per well in 8-well Lab-Tek II culture systems (Nalge Nunc International), 4 wells per treatment condition. At 80% confluence, the cells are treated for 5 days with the various compositions of active agents (VT1, VT2, VT3, each at 12 μg/ml) until the post-confluence stage is reached. Vitactyl® clair (extract of Malva sylvestris, Silab) at 3% is used as a positive control.
(§2) The cells are rinsed with PBS (PBS Tablets, Invitrogen GIBCO) and then fixed with formalin (Formalin Solution, 10%, Neutral Buffered, Sigma) for 10 minutes.
(§3) After rinsing with PBS, the culture chambers are filled with a 0.1% Triton solution (Triton X-100, Sigma) for 10 minutes in order to permeabilize the membranes, and then rinsed twice with PBS. The cells are then covered with a solution of PBS/1% BSA (BSA, Sigma) for 30 minutes at ambient temperature. The PBS/BSA solution is removed from the slides by inclining them on absorbent paper. […]
(§4) For each condition, four photos are taken in green fluorescence (expression of the markers) with the ×20 objective. […]
(§5) The photos are analyzed using the Leica QWin image analysis software. A program is created in order to quantify the expression of these differentiation markers.

[3] = system: HaCaT cells; experiment: Measurement of mitochondrial biogenesis on modified human keratinocytes (HaCaT), qPCR of 16S and COX2 DNA versus UCP-2; assay type: cell-based; settings: 48 h
Procedure: The objective is to verify whether or not the increase in enzymatic activity measured is linked to a basal stimulation of the respiratory chain of the mitochondria initially present or to an increase in the number of intracellular mitochondria, indicative of a stimulation of mitochondrial biogenesis.
The HaCaT cells are cultured in 6-well plates and then treated as described above. After treatment for 48 h, the cells are lysed with a buffer consisting of 10 mM of Tris base, 1 mM EDTA, 0.3M of sodium acetate and 1% SDS (1 ml/well) and according to an incubation time of overnight at 55° C. The mitochondrial DNA is extracted from the cell lysate with a phenol solution (1/1 ratio). Two cycles of centrifugation at 4000 rpm (5 minutes) are carried out. A solution de CHCl3/isoamyl alcohol (24:1, v/v) is then added to the upper aqueous phase, recovered after settling out. The mixture is then centrifuged (5 minutes, 4000 rpm, 4° C.).
Precipitation of the total DNA is induced by adding an absolute ethanol/3M sodium acetate mixture ([…]) to the supernatant. After centrifugation (30 minutes, 12000 rpm, 4° C.), the pellets are washed with EtOH at 70° v/v, and then dried and taken up in deionized water. The DNA is assayed using a spectrometer (Thermo Scientific Nanodrop). The DNA solutions are adjusted to a concentration of 10 ng/μl.
The expression of three different genes is measured by qPCR. This technique makes it possible to measure the amount of DNA polymerized by means of a fluorescent label. […]
The fluorescence is measured after the 45 cycles and the amount of DNA obtained is determined by means of the DNA range.
The results are expressed in amount of 16S and COX2 (QCOX2) DNA, calculated according to the amount of UCP-2 genomic DNA (QUCP-2), and which is defined as (QCOX2)/(QUCP-2)
A calculated (QCOX2)/(QUCP-2) ratio of greater than 1 indicates an increase in the amount of mitochondrial DNA, and reflects an increase in the number of intracellular mitochondria.

[4] = system: keratinocyte differentiation proteins (transglutaminase, involucrin, desmoglein 1); experiment: Stimulation of the differentiation of normal human keratinocytes (immunolabeling of differentiation proteins); assay type: cell-based; settings: NHKs, 12 μg/ml, treatment 5 days
Procedure: as §1, §2, §3, §4, §5

[5] = system: mitochondrial dehydrogenases (complex I and complex II) of normal human keratinocytes (NHKs); experiment: Stimulation of mitochondrial dehydrogenases on keratinocytes (XTT conversion to formazan); assay type: cell-based; settings: treatment 48 h; for Stimulation of mitochondrial dehydrogenase activity / mitochondrial respiratory functions (XTT): NHKs without irradiation, 6.25 to 0.78 μg/ml
Procedure: Normal human keratinocytes (NHKs), isolated from eyelids of 37-year-old Caucasian women, are cultured at passage 3 in complemented (Invitrogen) Keratinocyte Serum Free Medium (KSFM, Invitrogen) supplemented with 5% of fetal calf serum (FCS, Invitrogen).
The NHKs are seeded in 96-well plates (Greiner Bio One) in a proportion of 1.10^4 cells/well, and then incubated at 37° C., 5% CO2 for 24 h. These cells are then treated, after UVB irradiation (60 mJ/cm^2 Vilbeit-Lourmat irradiator) or without irradiation, with serial dilutions of the VT1, VT2 and VT3 compounds (from 6.25 to 0.78 μg/ml) diluted in DMSO (sigma) 0.1% v/v final concentration. The plates are incubated at 37° C., 5% CO2. The untreated cells containing 0.1% v/v of DMSO are considered to be a negative control. After treatment for 48 h, the supernatants are removed and the XTT solution (Cell proliferation kit II, Roche Diagnostic) is deposited in each well in order to determine the overall activity of the mitochondrial dehydrogenases. This activity is evaluated by means of the conversion of an XTT tetrazolium salt to soluble formazan, via a cell mechanism which calls for the enzymatic activities of the glycolytic NAD(P)H dehydrogenase (complex I) and of succinate dehydrogenase (complex II), which are constituents of the mitochondrial respiratory chain. The amount of colored formazan (determined by reading optical density at 450 nm) is directly related, firstly, to the enzymatic activity of the mitochondrial dehydrogenases and, secondly, to the amount of metabolically active cells (Roehm et al. J. Immunol. Methods, 1991; 142: 257-265). […] The 96-well plates are read at 450 nm with a spectrofluorometer (SpectraFluor Plus, Tecan). […]
The results are expressed as mean of the optical densities (OD) at 450 nm and standardized relative to the total concentration of cell proteins (expressed in μg/ml), which makes it possible to measure only the activity of the dehydrogenases and to dispel with the impact of cell proliferation on the measurement of the ODs obtained. […]

[6] = system: cytochrome C oxidase; experiment: Stimulation of cytochrome C oxidase on modified human keratinocytes (HaCaT); assay type: cell-based; settings: for Activation of cytochrome C oxidase activity: HaCaT cells, treatment 3 h, positive control resveratrol 11.41 μg/ml (50 μM)
Procedure: The objective of the study is to evaluate the potential of the compounds which are the subject of the invention for stimulating the performance levels of the mitochondrial respiratory chain. The assays are carried out on genetically modified human keratinocytes (HaCaT).
The HaCaT cells were cultured in 6-well plates in RPMI 1640 medium (Roswell Park Memorial Institute) w/o HEPES (Invitrogen) supplemented with 10% of fetal calf serum (FCS, Invitrogen) and a penicillin/streptomycin mixture, until confluence. They were then treated, in DMEM (Dulbecco's Modified Eagle Medium, Invitrogen) containing 4.5 g/L of glucose, 0.1% BSA (Bovine Serum albumin AM2618 Invitrogen), with serial dilutions of vandaterosides (from 6.25 to 0.78 μg/ml) diluted in DMSO (0.1% v/v final concentration). Resveratrol (Sigma) at 50 μM, i.e. 11.41 μg/ml, was used as positive reference. The untreated cells containing 0.1% v/v of DMSO were considered to be a negative control. After treatment for 3 h, the cells were lysed (20 mM HEPES, 0.1% Triton, 1 mM EDTA) and the total cell proteins were assayed by means of the Bradford technique (B6916 Sigma). The total protein concentration of each sample was then adjusted to 2 mg/ml.
The cell lysate was incubated in the presence of an assay buffer (Sigma) in order to determine the enzymatic kinetics without the addition of substrate, denoted Vo. Cytochrome C (from equine heart C-7752 Sigma) reduced with DTT (dithiothreitol, Sigma) was added to the assay buffer at 50 μM in order to measure the rate of the enzymatic reaction. The disappearance of the reduced cytochrome C was monitored using a spectrophotometer [Beckman DU 640] at 550 nm for 90 seconds according to the manufacturer's (Sigma) instructions. The results were calculated from the enzymatic kinetics curves and are expressed as cytochrome C oxidase activity (U/μg of proteins).
The equations allowing the calculation of the enzymatic activities are the following: Enzymatic activity of cytochrome C in U/ml=ACOX=(DA/min)/21.84 with: • DA/min=A/min(v)−A/min (v0) • 21.84 (mM)=ε(molar extinction coefficient) of ferrocytochrome C at 550 nm • A=Absorbance at 550 nm • A/min(v)=Absorbance at 550 nm at time “v” in minutes, corresponding to the time of the measurement after the addition of the substrate; • A/min (v0)=Absorbance at 550 nm at time “v0” (at the start, i.e. before the addition of substrate) in minutes.
The results are expressed by comparison of the enzymatic activity measured in the presence of the vandaterosides (ACOX samples) relative to the control enzymatic activity (ACOX control): i.e. (ACOX samples)/(ACOX control).
A calculated (ACOX samples)/(ACOX control) ratio of greater than 1 indicates stimulation of the activity of cytochrome C oxidase in the presence of the samples.

[7] = concentrations tested other than VT1 at 6.25 μg/ml

| Solubility in MeOH and DMSO [1] | Solubility in water ([1]; water) | Stimulation of keratinocyte differentiation protein expression compared with the negative control [4] | Cytochrome C oxidase activity level compared with resveratrol ([6]; HaCaT, 1.56 μg/ml (2 μM), 3 h, versus resveratrol 11.41 μg/ml (50 μM)) | Concentration at which a gel forms in water ([1]; water) | Dose effect on cytochrome C oxidase activity ([6]; HaCaT, 6.25 to 0.78 μg/ml, 3 h) | SMILES | Involucrin expression compared with positive control Vitactyl clair at 3% [2] | Activation of mitochondrial biogenesis (increase in number of intracellular mitochondria) [3, 7] | Stimulation of mitochondrial dehydrogenase activity / mitochondrial respiratory functions (XTT) [5] | Stimulation of the activity of the dehydrogenases relative to the negative control ([5]; NHKs, 0.78 μg/ml (1 μM), negative control DMSO 0.1%) | Activation of cytochrome C oxidase activity ([6]; 6.25 to 0.78 μg/ml) | Activation of mitochondrial biogenesis (increase in number of intracellular mitochondria) ([3]; 6.25 μg/ml, the exception means activation was seen) |
| --- | --- | --- | --- | --- | --- | --- | --- | --- | --- | --- | --- | --- |
| soluble | low solubility |  |  |  |  | O=C(/C=C/c1ccccc1)O[C@H]1[C@H](OC(CC(=O)OCc2ccc(O[C@@H]3O[C@H](CO)[C@@H](O)[C@H](O)[C@H]3O)cc2)(Cc2ccc(O)cc2)C(=O)OCc2ccc(O[C@@H]3O[C@H](CO)[C@@H](O)[C@H](O)[C@H]3O)cc2)O[C@H](CO)[C@@H](O)[C@@H]1O (stereo partly drawn) [VT3, 14-bis(4-β-D-glucopyranosyloxybenzyl)-(2R)-2-(2-β-D-glucopyranosyl-3-trans-cinnamoyl ester)-2-(p-hydroxybenzyl)malate] |  |  |  |  |  |  |
| soluble | low solubility | most effective | comparable to resveratrol | approximately 10 mM |  | O=C(CC(O)(Cc1ccc(O)cc1)C(=O)OCc1ccc(O[C@@H]2O[C@H](CO)[C@@H](O)[C@H](O)[C@H]2O)cc1)OCc1ccc(O[C@@H]2O[C@H](CO)[C@@H](O)[C@H](O)[C@H]2O)cc1 (stereo partly drawn) [VT2, 1,4-bis(4-β-D-glucopyranosyloxybenzyl)-(2R)-2-(p-hydroxybenzyl) malate] | greater than that of the positive control | neither of the two compounds induces an activation of mitochondrial biogenesis | most effectively stimulate | +39% | stimulatory effect; also recorded: best cytochrome C oxidase activator |  |
| soluble | low solubility | most effective |  |  | A dose effect is observed | O=C(CC(O)(Cc1ccc(O)cc1)C(=O)O)OCc1ccc(O[C@@H]2O[C@H](CO)C(O)[C@H](O)[C@H]2O)cc1 (stereo partly drawn) [VT1, 4-(4-β-D-glucopyranosyloxybenzyl)-(2R)-2-(p-hydroxybenzyl) malate] |  | neither of the two compounds induces an activation of mitochondrial biogenesis | most effectively stimulate |  | stimulatory effect | with the exception of VT1 at 6.25 μg/ml |
